From ChEMBL document CHEMBL4765228, “Indole-like Trk receptor antagonists” (Eur J Med Chem, 2016)
≈ marks a conversion by molar mass, not a printed value. Calls of active or inactive are those of the source. The calls are words filed in the database; no cut-off is given here.

Assays:
[1] = target: T1, BDNF/NT-3 growth factors receptor (Homo sapiens, UniProt Q16620); assay: Inhibition of TrkB (unknown origin)
[2] = target: High affinity nerve growth factor receptor (Homo sapiens, UniProt P04629); assay: Inhibition of TrkA (unknown origin)
Chain of High affinity nerve growth factor receptor (P04629 whole entry, the tested form may be a part): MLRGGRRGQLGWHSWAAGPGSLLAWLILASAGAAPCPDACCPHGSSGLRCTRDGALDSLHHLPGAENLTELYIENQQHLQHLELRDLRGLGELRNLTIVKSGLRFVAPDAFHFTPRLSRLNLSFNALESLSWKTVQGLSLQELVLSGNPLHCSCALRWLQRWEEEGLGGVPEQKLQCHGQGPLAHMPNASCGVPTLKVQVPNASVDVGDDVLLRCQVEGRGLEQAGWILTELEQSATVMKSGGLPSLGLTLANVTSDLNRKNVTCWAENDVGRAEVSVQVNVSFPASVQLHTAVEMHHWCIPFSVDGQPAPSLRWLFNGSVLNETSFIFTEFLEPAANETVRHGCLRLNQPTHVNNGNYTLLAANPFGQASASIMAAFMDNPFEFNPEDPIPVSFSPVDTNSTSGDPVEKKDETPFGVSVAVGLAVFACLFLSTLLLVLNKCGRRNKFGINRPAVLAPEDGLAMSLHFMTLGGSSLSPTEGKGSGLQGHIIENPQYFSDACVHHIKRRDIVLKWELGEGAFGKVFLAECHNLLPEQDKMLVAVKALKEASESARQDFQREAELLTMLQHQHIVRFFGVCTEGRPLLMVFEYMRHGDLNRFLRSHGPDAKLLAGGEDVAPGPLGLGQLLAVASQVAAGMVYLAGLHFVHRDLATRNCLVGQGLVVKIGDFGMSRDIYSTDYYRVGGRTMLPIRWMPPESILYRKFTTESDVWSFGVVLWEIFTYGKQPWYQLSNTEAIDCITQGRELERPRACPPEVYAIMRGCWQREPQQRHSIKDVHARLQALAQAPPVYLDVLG

[3] = target: T1, BDNF/NT-3 growth factors receptor; assay: Inhibition of GAL4 fused TrkB (unknown origin) expressed in MG87 cells transfected with pFA2-Elk plasmid and pFR-luciferase plasmid measured for 18 hrs by luciferase reporter gene assay; assay type: cell-based
Cortical neurone = assay: Cytotoxicity against Wistar rat cortical neuron assessed as neuron survival at 0.01 to 1 uM incubated for 24 hrs; assay type: cell-based; settings: dose 0.01-1 µM
[4] = Aqueous solubility of the compound […] incubated for 60 min by RP-HPLC-DAD analysis; assay type: physicochemical
[5] = target: BDNF/NT-3 growth factors receptor (Mus musculus) (UniProt P15209); assay: Inhibition of TrkB in mouse MG87 cells transfected with pFA2-Elk plasmid and pFR-luciferase plasmid assessed as reduction in Akt phosphorylation at 0.01 to 1 uM after 5 mins in presence of BDNF by Western blot analysis; assay type: cell-based; settings: dose 0.01-1 µM
Chain of BDNF/NT-3 growth factors receptor (Mus musculus) (P15209 whole entry): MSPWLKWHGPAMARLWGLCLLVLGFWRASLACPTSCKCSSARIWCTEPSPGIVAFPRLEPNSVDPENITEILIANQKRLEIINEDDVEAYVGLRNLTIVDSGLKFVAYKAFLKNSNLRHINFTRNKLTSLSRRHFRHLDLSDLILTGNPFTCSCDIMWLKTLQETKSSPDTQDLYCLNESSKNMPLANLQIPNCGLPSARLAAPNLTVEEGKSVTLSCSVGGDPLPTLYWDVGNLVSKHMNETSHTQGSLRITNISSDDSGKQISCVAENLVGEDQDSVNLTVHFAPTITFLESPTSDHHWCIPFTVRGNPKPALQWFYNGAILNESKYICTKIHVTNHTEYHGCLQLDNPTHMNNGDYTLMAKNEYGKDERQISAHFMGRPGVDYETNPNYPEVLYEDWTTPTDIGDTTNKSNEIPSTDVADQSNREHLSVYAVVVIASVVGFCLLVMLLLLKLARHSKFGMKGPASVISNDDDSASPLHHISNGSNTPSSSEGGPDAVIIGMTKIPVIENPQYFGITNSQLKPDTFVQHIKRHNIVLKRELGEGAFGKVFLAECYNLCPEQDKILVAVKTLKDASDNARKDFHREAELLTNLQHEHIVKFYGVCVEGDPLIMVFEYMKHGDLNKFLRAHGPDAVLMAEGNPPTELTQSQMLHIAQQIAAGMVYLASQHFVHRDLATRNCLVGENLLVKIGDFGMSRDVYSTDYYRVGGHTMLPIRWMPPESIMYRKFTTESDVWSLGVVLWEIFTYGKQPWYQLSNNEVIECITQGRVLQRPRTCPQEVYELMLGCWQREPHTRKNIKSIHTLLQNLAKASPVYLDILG

T1 sequence (Q16620 whole entry): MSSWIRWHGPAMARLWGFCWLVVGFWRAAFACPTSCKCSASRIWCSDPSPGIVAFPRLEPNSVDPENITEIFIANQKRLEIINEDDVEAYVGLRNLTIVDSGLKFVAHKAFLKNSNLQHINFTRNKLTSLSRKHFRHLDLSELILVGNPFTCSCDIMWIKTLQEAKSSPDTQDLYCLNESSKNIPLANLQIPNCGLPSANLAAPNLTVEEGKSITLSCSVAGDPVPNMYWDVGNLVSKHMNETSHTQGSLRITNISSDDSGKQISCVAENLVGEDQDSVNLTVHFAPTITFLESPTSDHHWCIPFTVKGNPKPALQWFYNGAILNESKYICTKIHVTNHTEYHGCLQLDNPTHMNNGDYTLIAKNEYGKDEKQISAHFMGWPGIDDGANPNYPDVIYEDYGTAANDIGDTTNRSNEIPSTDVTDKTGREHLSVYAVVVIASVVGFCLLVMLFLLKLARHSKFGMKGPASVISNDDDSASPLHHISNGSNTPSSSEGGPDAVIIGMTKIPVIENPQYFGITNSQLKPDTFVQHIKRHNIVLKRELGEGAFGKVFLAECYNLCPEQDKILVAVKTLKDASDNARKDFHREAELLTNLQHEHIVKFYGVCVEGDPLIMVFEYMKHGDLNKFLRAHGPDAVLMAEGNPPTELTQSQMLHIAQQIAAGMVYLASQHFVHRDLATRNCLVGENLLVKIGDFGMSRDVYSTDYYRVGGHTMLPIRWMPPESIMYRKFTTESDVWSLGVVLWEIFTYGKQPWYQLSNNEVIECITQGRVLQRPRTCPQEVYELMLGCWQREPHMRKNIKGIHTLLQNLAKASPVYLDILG

COc1ccc2[nH]cc(/C=C3\C(=O)Nc4ccc(S(N)(=O)=O)cc43)c2c1
IC50 [1]: 8.53 nM
IC50 [2]: 8.49 nM

COc1ccc2c(c1)c(/C=C1\C(=O)Nc3ccc(S(=O)(=O)N(C)C)cc31)cn2C
IC50 [3]: 142 nM
Activity (Cortical neurone): Non-Toxic
solubility at 1 h [4]: 7.8 µM (≈ 3.21 µg/mL)
IC50 [1]: 15.2 nM
inhibition [5]: Active
IC50 [2]: 10.1 nM

COc1ccc2c(c1)c(/C=C1\C(=O)Nc3ccc(S(N)(=O)=O)cc31)cn2C
inhibition [5]: Active

Cn1cc(/C=C2\C(=O)Nc3ccc(S(N)(=O)=O)cc32)c2ccccc21
IC50 [1]: 7.62 nM
IC50 [2]: 4.17 nM

CNS(=O)(=O)c1ccc2c(c1)/C(=C/c1cn(C)c3ccc(OC)cc13)C(=O)N2
inhibition [5]: Active

CN(C)S(=O)(=O)c1ccc2c(c1)/C(=C/c1cn(C)c3ccc(O)cc13)C(=O)N2
IC50 [1]: 13.5 nM
IC50 [2]: 9.17 nM
